Experimental data as given in article PMC11726150, “Pre‐ADMET studies of 5‐(3′,4′‐dihydroxyphenyl)‐γ‐valerolactone, the bioactive intestinal metabolite of proanthocyanidins” (Archiv Der Pharmazie, 2024).
Entries after “also recorded” stand apart in the source; their conditions may differ. Like-named read-outs stand apart in the source and are kept apart here.

Tests used:
[1] = Metabolic stability assay with human S9 liver fraction; format: in vitro ADME
Procedure: HLMs and S9 fractions were used to determine, respectively, phases I and II metabolism of VL. A mixture of the activating cofactors (NADP^+ and UDPGA) and enzymes (G6PO4 and G6PDH) were used to stimulate the metabolism; in the microsome assay UDPGA was not needed. The final concentrations of cofactors NADPH and UDPGA were 1 mM each, while for the enzymes G6PO4 and G6PDH were 10 mM and 2 U/mL, respectively. The phosphate buffer was prepared as a 100 mM solution, pH 7.4, containing 10 mM magnesium chloride in deionized water. Testosterone and 7‐hydroxycoumarin were used as positive controls for phases I and II metabolism, and stock reference solutions of controls and VL were prepared, respectively, at 5 mM and 10 mM concentration in DMSO, and then diluted to a final test concentration of 10 µM. S9 fraction or microsome, final concentration 1 mg/mL, were preincubated with a test compound for 5 min at 37°C in the phosphate buffer, pH 7.4, and then the reactions were initiated by adding the cofactor mixture. A negative control sample was prepared replacing the reaction enzymes with water in the presence of a reaction mixture and test compound VL. At time points 0, 10, 20, 30, 45, 60, 90, and 120 min, 100 µL aliquots of the sample mixture were removed and quenched by the addition of two volumes of ice‐cold 50:50 ACN:MeOH containing the internal standard (cinnamic acid‐d6, 300 ng/mL final concentration). The quenched samples were then stored at −80°C overnight and defrosted before analysis, sonicated for 10 min, and centrifuged at 14,000 rpm for 15 min at 4°C to sediment the precipitated proteins before injection onto ultra performance liquid chromatography‐mass/mass (UPLC‐MS/MS) for analysis. T ½ was calculated using the interpolating point method using the nonlinear fit option of GraphPad Prism 8, while intrinsic clearance CL'int (mL/min/kg) was calculated as written in Equation (4) and as reported previously:^[ [23] ^] (4) CL^′int=0.693×Dose/T½.

[2] = biological target: T1, PXR (Homo sapiens, UniProt O75469); format: cell-based; parameters: expressed in transfected cells; host or cells: HepG2 and LS174T cells, transient electroporation; details: HepG2 cells, all concentrations tested (1.5–50 μM), 24 h
T1 sequence (O75469 1-434): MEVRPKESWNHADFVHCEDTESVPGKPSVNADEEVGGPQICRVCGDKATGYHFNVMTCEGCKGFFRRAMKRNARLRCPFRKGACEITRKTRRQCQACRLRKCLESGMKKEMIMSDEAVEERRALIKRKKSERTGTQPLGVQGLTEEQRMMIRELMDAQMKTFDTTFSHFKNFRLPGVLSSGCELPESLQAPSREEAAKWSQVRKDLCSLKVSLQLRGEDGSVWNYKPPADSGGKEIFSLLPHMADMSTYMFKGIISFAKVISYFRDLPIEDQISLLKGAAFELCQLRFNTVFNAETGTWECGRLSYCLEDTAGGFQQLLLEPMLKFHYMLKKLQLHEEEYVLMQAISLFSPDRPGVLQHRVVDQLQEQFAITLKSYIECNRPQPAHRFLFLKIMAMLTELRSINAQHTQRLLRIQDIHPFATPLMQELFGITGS
Procedure: (§1) The PXR activation potential of VL was determined in transiently transfected HepG2 and LS174T cells as described earlier.^[ [50] ^] In brief, 24‐h‐old cells having 70%−80% confluency were trypsinized and transfected with pSG5‐hPXR (25 μg) and PCR‐5 (25 μg) plasmid DNA by electroporation at 180 V (1 pulse for 70 ms). Cells were incubated at room temperature for 8 min and floating dead cells were carefully removed. Cells were seeded in 96‐well plates at a density of 50,000 cells/well. […] Following 24 h of incubation, the culture medium was aspirated and 40 μL of luciferase reagent (Promega Corporation) was added to each well. Luminescence was measured using a Spectramax M5 plate reader (Molecular Devices) and the fold increase in luciferase activity among sample‐treated cells was calculated in comparison with the vehicle‐treated (DMSO) cells.

[3] = biological target: T2, CYP3A4 (Homo sapiens, UniProt P08684); assay: CYP inhibition assay; format: biochemical; details: read-out: half‐maximal inhibitory concentration (IC50)
T2 construct: purchased
Procedure: (§2) The inhibitory potential of VL toward the catalytic activity of CYP3A4 and CYP1A2 was investigated through CYP inhibition assays using high‐throughput CYP450 screening kits. Stock solutions of VL (10 mM in DMSO) and specific positive controls for each CYP isoform were serially diluted in methanol and reactions were performed in 96‐well plates according to the supplier's instructions. Briefly, 40 μL (×2.5) of test compound and 50 μL master premix were added to 96‐well plates. Plates were incubated for 10 min at room temperature to allow for sufficient interaction of the test compound and enzyme. Following incubation, 10 μL (×10) of enzyme‐specific substrates were added and plates were vortex‐mixed for 30 s. Further, fluorescence was measured at the specified excitation and emission wavelengths for each substrate as recommended per individual kit protocol. Ketoconazole (0.004, 0.01, 0.03, 0.11, 0.33, and 1 μM) and α‐naphthoflavone (0.004, 0.01, 0.03, 0.11, 0.33, and 1 μM) were used as positive controls for CYP3A4 and CYP1A2, respectively. IC50 values were obtained from concentration‐response curves generated by plotting the percentage of inhibition versus concentration.^[ [46] ^]

[4] = biological target: T3, CYP1A2 (Homo sapiens, UniProt P05177); assay: CYP inhibition assay; format: biochemical
T3 construct: purchased
T3 sequence (P05177 1-516): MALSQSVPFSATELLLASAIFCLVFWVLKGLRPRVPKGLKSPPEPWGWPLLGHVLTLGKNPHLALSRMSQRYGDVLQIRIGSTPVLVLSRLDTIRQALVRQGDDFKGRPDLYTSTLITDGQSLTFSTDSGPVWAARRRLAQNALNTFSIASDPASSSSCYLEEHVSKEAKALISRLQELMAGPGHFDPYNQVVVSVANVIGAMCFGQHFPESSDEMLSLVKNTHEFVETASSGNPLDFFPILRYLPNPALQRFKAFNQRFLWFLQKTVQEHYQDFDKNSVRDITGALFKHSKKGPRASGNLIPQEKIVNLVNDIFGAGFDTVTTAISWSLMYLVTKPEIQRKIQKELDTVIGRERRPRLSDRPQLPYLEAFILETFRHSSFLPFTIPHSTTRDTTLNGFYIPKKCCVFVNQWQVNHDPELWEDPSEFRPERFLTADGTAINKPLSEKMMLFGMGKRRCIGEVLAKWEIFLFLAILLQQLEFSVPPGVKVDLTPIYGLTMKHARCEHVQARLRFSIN
Procedure: as §2

[5] = biological target: T1, PXR; format: cell-based; parameters: expressed in transfected cells; host or cells: LS174T cells, transient electroporation; details: LS174T cells, all concentrations tested (1.5–50 μM), 24 h
Procedure: as §1

T2 sequence (P08684 whole entry): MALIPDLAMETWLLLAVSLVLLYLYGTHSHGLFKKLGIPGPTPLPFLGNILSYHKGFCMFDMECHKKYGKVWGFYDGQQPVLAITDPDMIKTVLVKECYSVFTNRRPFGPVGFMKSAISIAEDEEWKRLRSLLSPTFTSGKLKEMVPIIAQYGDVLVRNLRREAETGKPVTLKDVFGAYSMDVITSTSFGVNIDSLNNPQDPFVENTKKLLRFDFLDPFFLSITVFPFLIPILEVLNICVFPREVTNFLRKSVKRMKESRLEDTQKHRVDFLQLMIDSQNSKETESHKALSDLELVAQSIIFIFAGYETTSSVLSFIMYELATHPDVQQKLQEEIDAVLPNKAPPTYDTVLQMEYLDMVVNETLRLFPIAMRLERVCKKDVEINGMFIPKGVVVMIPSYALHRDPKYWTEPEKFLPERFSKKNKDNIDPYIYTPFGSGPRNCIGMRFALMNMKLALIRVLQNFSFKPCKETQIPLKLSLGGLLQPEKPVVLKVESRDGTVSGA

- VL metabolized in the liver fraction ([1]; S9 liver fraction, 120 min): 70.83%
- intrinsic clearance ([1]; human S9 fraction 1 mg/mL, 10 µM): 0.784 µM/min
- half-life at 10 µM ([1]; liver S9 fraction, pH 7.4, human S9 fraction 1 mg/mL, 10 µM, NADPH + UDPGA, read-out: half‐life t ½): 8.72 min
- stability under negative control experimental conditions ([1]; reaction enzymes replaced with water, data not shown): stable
- IC50 [3]: > 25 µM
- inhibition of CYP1A2 [4]: no inhibition effect
Compound: O=C1CCC(Cc2ccc(O)c(O)c2)O1 (centres unmarked) [VL, 5‐(3′,4′‐dihydroxyphenyl)‐γ‐valerolactone]
- PXR transcriptional activity, fold increase vs vehicle [2]: does not increase the PXR activity; also recorded: < twofold
- PXR transcriptional activity, fold increase vs vehicle [5]: does not increase the PXR activity; also recorded: < twofold
